Reference: patent publication US7071231B2, “Naphthalene ureas as glucose uptake enhancers” (Telik, Inc., priority 1999, dated 2006)
Where a name gives a salt, the structure may show the parent alone.

Tests used:
[1] = target: T1, β-kinase domain of the human insulin receptor (CKD) (Homo sapiens, UniProt P06213); experiment: 32P-cytoplasmic kinase domain (CKD) autophosphorylation assay; format: biochemical; conditions: phosphorylation of CKD expressed as % of the vehicle level; 10 minutes at room temperature; compound concentration not given
T1 construct: The complete β-kinase domain of the human insulin receptor (CKD) was expressed in, and purified from, baculovirus; made in house
T1 sequence (P06213 980-1382 limits assumed): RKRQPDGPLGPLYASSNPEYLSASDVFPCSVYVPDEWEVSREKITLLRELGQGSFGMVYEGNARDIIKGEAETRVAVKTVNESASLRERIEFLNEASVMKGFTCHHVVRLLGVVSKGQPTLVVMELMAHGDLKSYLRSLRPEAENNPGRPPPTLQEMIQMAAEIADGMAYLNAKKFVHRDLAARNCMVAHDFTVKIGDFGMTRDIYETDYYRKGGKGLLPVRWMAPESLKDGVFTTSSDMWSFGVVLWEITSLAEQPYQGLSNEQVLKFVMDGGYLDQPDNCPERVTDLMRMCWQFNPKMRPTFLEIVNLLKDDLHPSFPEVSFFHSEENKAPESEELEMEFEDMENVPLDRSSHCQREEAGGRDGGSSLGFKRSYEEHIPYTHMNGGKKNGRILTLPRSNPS
Experimental: ^32P-cytoplasmic Kinase Domain (CKD) Autophosphorylation Assay The insulin signaling pathway is activated through stimulation of the insulin receptor. A major component of this activation is the phosphorylation of a specific portion of the receptor called the β-kinase domain. The complete β-kinase domain of the human insulin receptor (CKD) was expressed in, and purified from, baculovirus. CKD (4.0μg/ml), in a solution of 29 mM HEPES (pH 7.6), 0.05% Triton X-100, 10 mM MgCl2, 2 mM MnCl2 (50 μl final volume), was combined with 50 μM ATP, and 5 μCi ^32P-ATP (3000Ci/mmol.). A test compound, or the vehicle (dimethyl sulfoxide (DMSO)) was added to a final DMSO concentration of 1%. The mixture was incubated for 10 minutes at room temperature. The reaction was terminated by the addition of 10 μl 200 mM EDTA. A 30 μl volume was removed, mixed with 5 μl of 6× Laemmeli sodium dodecyl sulfate (SDS) treatment buffer, and heated to 94° C. for 5 minutes. A 20 μl aliquot was then run an SDS-PAGE gel. The radioactivity incorporated into the CKD band was quantified by phosphorimaging of the gel, or scintillation counting of the excised bands. The potency of a compound for increasing phosphorylation was expressed as % of the vehicle level.

[2] = test system: 3T3 L1 fibroblasts; experiment: Glucose transport activity assay (14C-2-deoxy-D-glucose uptake); format: cell-based
Method in brief: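 Differentiated 3T3 L1 adipocytes (IBMX/dexamethasone/insulin induction), serum-starved overnight, preincubated 30 min at 37 °C with compound ± insulin in pH 7.4 salt buffer, then 30 min with 5 μCi/ml 14C-2-deoxy-D-glucose. Lysate radioactivity counted; EC = concentration raising uptake above 150% of vehicle control.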

[3] = test system: Escherichia coli strain WP2uvrA; experiment: Ames test, Escherichia coli strain; conditions: 50 to 5000 μg/plate, without and with induced rat liver S-9 plus cofactors
[4] = test system: Salmonella typhimurium strains, TA100, TA1535, and TA1537; experiment: Ames test, Salmonella typhimurium strains; conditions: 50 to 5000 μg/plate, without and with induced rat liver S-9 plus cofactors
[5] = target: T2, human insulin receptor (Homo sapiens, UniProt P06213); experiment: Whole-cell phosphorylation assay (3T3HIR cells); format: cell-based; conditions: 15 min, anti-phosphotyrosine Western, various concentrations (FIG. 2)
T2 construct: expressed in transfected cells; host or cells: NIH 3T3 (3T3HIR)
T2 sequence (P06213 763-1382 limits assumed): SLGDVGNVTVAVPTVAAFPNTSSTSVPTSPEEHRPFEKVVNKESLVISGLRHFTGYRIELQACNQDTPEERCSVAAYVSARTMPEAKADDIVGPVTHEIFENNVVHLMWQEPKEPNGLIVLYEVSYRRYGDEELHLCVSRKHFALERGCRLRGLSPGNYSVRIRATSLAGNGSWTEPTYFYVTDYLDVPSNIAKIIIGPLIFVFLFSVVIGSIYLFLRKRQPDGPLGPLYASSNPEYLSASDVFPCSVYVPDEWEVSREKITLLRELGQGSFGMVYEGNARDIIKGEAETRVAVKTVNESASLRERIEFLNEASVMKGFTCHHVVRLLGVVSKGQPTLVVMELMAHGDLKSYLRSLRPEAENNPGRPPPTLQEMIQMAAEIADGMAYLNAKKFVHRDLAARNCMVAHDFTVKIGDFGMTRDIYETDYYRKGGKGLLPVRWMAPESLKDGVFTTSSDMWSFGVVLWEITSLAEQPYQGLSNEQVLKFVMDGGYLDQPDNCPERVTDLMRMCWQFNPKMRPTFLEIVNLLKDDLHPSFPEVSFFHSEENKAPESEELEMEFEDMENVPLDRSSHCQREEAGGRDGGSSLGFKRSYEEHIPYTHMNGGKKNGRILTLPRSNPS
T2 sequence (P06213 28-758 partner limits assumed): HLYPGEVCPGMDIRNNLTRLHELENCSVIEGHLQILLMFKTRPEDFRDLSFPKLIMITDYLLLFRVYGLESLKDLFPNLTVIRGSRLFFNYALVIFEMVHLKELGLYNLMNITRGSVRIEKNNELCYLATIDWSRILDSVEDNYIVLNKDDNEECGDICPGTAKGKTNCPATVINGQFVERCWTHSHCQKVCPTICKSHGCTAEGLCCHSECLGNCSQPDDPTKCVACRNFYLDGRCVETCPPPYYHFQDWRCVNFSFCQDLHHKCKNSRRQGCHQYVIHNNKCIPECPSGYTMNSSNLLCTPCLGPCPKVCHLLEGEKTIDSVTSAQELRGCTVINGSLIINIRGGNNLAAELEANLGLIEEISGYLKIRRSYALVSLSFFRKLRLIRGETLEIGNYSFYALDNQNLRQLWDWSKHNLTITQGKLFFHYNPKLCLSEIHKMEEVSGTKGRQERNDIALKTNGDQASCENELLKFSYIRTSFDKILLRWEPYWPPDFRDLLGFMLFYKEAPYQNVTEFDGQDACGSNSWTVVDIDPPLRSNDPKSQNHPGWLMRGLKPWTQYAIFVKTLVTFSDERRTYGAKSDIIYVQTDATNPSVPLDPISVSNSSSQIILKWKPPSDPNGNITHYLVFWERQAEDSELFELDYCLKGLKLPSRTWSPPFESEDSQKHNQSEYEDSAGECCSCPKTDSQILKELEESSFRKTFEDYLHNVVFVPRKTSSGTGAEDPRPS
Experimental: Whole-cell Phosphorylation Assay:
The initial step in insulin signaling is phosphorylation of the insulin receptor in response to insulin binding. NIH 3T3 cells overexpressing human insulin receptor (3T3HIR) were grown for 2 days at a density of 2×10^5/ml cells in 6 well culture dishes in DMEM with 10% FBS and L-glutamine. Prior to the experiment the cells were serum-starved overnight with DMEM with 0.1% BSA. The following morning, the cells were washed with PBS and the medium was replaced with 150 mM NaCl, 1.7 mM KCl, 0.9 mM CaCl2, K2HPO4 (pH 7.4), to which were added either the experimental compounds, or their vehicle (DMSO). Insulin or its vehicle (0.01% BSA) was diluted in the assay buffer (containing test compound or vehicle, respectively) to a final concentration of 2.5 nM. After incubating for 15 min, the cells were washed with cold PBS twice and lysed in 50 mM Tris.HCl, pH 7.4 150 mM NaCl, 0.25% sodium deoxycholate, 1% NP-40, 1 mM EGTA, 1 mM PMSF, 1 mM Na3VO4, 1 mM NaF, 1 ug/ml each of Aprotinin, Leupeptin and Pepstatin. The cell lysates were clarified by centrifugation at 12000 rpm, and the supernatants were estimated for protein concentration. Total cell lysate ([…]) was boiled with 2× SDS-PAGE sample buffer for 3 min and loaded into 7.5% SDS-PAGE along with Amersham rainbow marker protein as a molecular weight standard. […]

[6] = test system: STZ/HFD rat; experiment: Blood glucose determination in the STZ/HFD rat model of Type 2 diabetes; format: in vivo; conditions: STZ/HFD rat model, oral compound administration (30 mg/kg)
Description: Blood Glucose Determination in the STZ/HFD Rat Model of Type 2 Diabetes
Representative compounds were also profiled in genetically normal rats given a high-fat diet followed by treatment with a low dose of streptozotocin (STZ/HFD). This treatment regimen recreates both the insulin resistance and the hyperglycemia seen in human Type 2 diabetes. Male CD rats (Jackson Labs, Bar Harbor Me.) were maintained according to NIH guidelines, housed two per cage, and fed either standard lab chow (Tekland Laboratory Diets, James Grain, San Jose, Calif.) or the same chow supplemented with chocolate bars, cookies, and potato chips such that their final diet contained 30% fat by weight (high-fat diet; HFD). After two weeks of this diet, the animals were given an injection of freshly-prepared streptozotocin (35 mg/kg, i.p.) and continued on the HFD. Animals that achieved glucose levels of 190 to 380 mg/dl were used in this study. At the end of the 12-hour light/dark cycle, and just prior to the experiment, the animals were moved to new cages with no food available until 4 hours after treatment. The compound or vehicle (PBS) was given p.o. by gavage, and blood was sampled by approved IACUC protocol using tail cap method. Glucose was determined using the Glucometer Elite (Bayer, Elkhart, Ind.).
The reduction was maximal (20%) 4 hours after the administration of Compound 15.

[7] = test system: 3T3 L1 adipocytes; experiment: Effect of Wortmannin and Cytochalasin on glucose uptake; format: cell-based; conditions: Cytochalasin B 10 μM; stimulation by Compound 15 alone or Compound 15 plus 5.6 nM insulin
Experimental: Effect of Wortmannin and Cytochalasin on Glucose Uptake:
The glucose transport pathway stimulated by insulin involves activation of PI3 Kinase. Wortmannin is a selective inhibitor of PI3 Kinase and inhibits insulin-stimulated glucose transport. 3T3 L1 adipocytes were pretreated with 100 nM Wortmannin and stimulated with the compounds in the presence or absence of insulin. […] Insulin-stimulated glucose transport is mediated by glucose transporter proteins. Cytochalasin B is an inhibitor of glucose transporters and inhibits insulin-stimulated glucose uptake.

autophosphorylation of the insulin receptor in whole cells [5] | SMILES | % Activity vs. Control [1] | EC (150% of vehicle control) ([2]; Mus musculus, 3T3-L1, read-out: Concentration (μM) to reach >150% activity of vehicle control) | mutagenicity (revertant colonies), tryptophan operon [3] | mutagenicity (revertant colonies), histidine operon [4] | glucose uptake of cells ([2]; in the presence or absence of insulin (FIG. 3)) | % Reduction in Blood Glucose (maximal reduction) [6] | Time (h) at which maximal reduction in blood glucose occurred [6] | effect on stimulation of glucose transport [7]
– | O=C(Nc1ccc2c(O)cc(S(=O)(=O)O)cc2c1)Nc1ccc2c(O)cc(S(=O)(=O)O)cc2c1 [Compound 4, 4-hydroxy-7-{[(5-hydroxy-7-sulfo(2-naphthyl))amino]carbonylamino}naphthalene-2-sulfonic acid disodium salt] | 152% | 32 µM | negative | negative | – | – | – | –
increase of autophosphorylation | O=C(Nc1ccc2ccc(S(=O)(=O)Nc3cccc(S(=O)(=O)O)c3)cc2c1)Nc1ccc2ccc(S(=O)(=O)Nc3cccc(S(=O)(=O)O)c3)cc2c1 [Compound 13, 3-{[(7-{[N-(7-{[(3-sulfophenyl)amino]sulfonyl}-2-naphthyl)carbamoyl]amino}-2-naphthyl)sulfonyl]amino}benzenesulfonic acid disodium salt] | 135% | – | – | – | increase in glucose uptake of cells | 20% | 1 h | –
– | C=C1[C@@H](C)[C@H]2[C@H](Cc3ccccc3)NC(=O)[C@]23OC(=O)/C=C/[C@H](O)CCC[C@@H](C)C/C=C/[C@H]3[C@@H]1O [Cytochalasin B] | – | – | – | – | – | – | – | inhibited the stimulation of glucose transport
